{"source": "patent US20230063321A1", "about": "“Methods for Treating Inflammatory Bowel Diseases with alpha4beta7 Integrin Antagonists” (Protagonist Therapeutics, Inc., priority 2020, published 2023)", "molecules": {"B1": {"name": "Compound B (peptide)", "peptide": "Ac-[Pen][NMeR]SDTL[Pen][Phe(4-tBu)][β3hE][dK]-NH2", "modifications": "disulfide 1-7; also: homodimer linked through D-Lys residues by diglycolic acid (DIG)"}}, "key": {"α4β7 integrin": {"target": "T1, α4β7 integrin (Homo sapiens, UniProt P13612+P26010)", "T1 construct": "endogenous in cells; host or cells: primary human CD4+ T cells enriched from PBMCs of healthy donors", "test": "Inhibition of MAdCAM1-mediated CD4+ T cell proliferation (plate bound anti-CD3 + MAdCAM1)", "assay_type": "cell-based", "conditions": "Compound A 1 uM, inactive analog 1 uM, vedolizumab 500 ng/mL; three days", "experimental": "PBMCs were purified from healthy human donors and enrichment of CD4+ T cells was performed. […] Phenotype, distribution of T-helper (Th) subsets and % RO analyses were conducted by flow cytometry of freshly stained live samples."}, "α4β7 [1]": {"target": "T2, α4β7 (Homo sapiens, UniProt P13612+P26010)", "T2 construct": "endogenous in cells", "test": "α4β7 internalization / surface expression by flow cytometry", "assay_type": "cell-based", "conditions": "human PBMCs, 100 nM, 24 h", "from_the_text": "Blood samples from human donors were obtained from the Stanford Blood Center (Stanford, Calif.) under an RB-approved research protocol. Blood was drawn into BD Vacutainer sodium heparin blood collection tubes (BD Biosciences, Cat #362753). Peripheral blood mononuclear cells (PBMCs) were isolated from blood using a SepMate-50 tube and LymphoPrep per the manufacturer's protocol. CD4^+ T memory cells were enriched after PBMC isolation, using an EasySep kit (StemCell Technologies) per the manufacturer's protocol.\nAfter incubation, an aliquot of cells from each reaction was stained for α4β7 expression.\nAfter incubation, cells were washed extensively to remove excess peptide. For each reaction, an aliquot of cells was stained for α4β7 expression, while a separate aliquot was tested for adhesion to MAdCAM1.\nAn aliquot of cells were collected before and 24 h post peptide addition and stained for α4β7 expression. Afterwards, cells were extensively washed to remove excess peptide and incubated in fresh complete culture medium (without MnCl2) for an additional seven days. On day 1, 2, 4, 5, and 7 days after peptide washout, aliquots were stained for α4β7 expression.\nFollowing peptide incubation, an aliquot of each reaction was stained for surface expression of α4β7 in preparation for flow cytometry. Cells were stained at 4° C. for 30 minutes, washed twice in DPBS containing 0.5% BSA (PBS/BSA), incubated with streptavidin BV421 (diluted 1:1000) at 4° C. for 30 minutes, washed twice in PBS/BSA, and then resuspended in PBS/BSA for analysis. Where relevant, a “fluorescence minus one” (FMO) sample was used as the staining control.\nSamples were analyzed by flow cytometry on a BD (Franklin Lakes, N.J.) FACSVerse flow cytometer equipped with the following lasers: 405 nm (violet), 488 nm (blue), 561 nm (yellow-green), and 640 nm (red). CD4^+ T memory cells were identified as CD4^+, […], CD197^+ lymphocytes. α4β7 expression within CD4^+ T memory cells was identified based on staining with the Vedolizumab BV421 complex; staining was analyzed using BD FACSuite software, version 1.0.5. Where applicable, values were normalized to no-peptide controls and expressed as percentages to permit assessment of changes in the indicated parameter. Data were plotted and analyzed using Prism software (version 7; GraphPad, La Jolla, Calif.)."}, "α4β7 [2]": {"target": "T3, α4β7 (Mus musculus, UniProt P26011+Q00651)", "T3 construct": "mice were euthanized and whole blood/plasma and Peyer's patches were collected; from tissue; host or cells: whole blood and Peyer's patches of C57BL/6 mice", "T3 sequence (Q00651 41-1039)": "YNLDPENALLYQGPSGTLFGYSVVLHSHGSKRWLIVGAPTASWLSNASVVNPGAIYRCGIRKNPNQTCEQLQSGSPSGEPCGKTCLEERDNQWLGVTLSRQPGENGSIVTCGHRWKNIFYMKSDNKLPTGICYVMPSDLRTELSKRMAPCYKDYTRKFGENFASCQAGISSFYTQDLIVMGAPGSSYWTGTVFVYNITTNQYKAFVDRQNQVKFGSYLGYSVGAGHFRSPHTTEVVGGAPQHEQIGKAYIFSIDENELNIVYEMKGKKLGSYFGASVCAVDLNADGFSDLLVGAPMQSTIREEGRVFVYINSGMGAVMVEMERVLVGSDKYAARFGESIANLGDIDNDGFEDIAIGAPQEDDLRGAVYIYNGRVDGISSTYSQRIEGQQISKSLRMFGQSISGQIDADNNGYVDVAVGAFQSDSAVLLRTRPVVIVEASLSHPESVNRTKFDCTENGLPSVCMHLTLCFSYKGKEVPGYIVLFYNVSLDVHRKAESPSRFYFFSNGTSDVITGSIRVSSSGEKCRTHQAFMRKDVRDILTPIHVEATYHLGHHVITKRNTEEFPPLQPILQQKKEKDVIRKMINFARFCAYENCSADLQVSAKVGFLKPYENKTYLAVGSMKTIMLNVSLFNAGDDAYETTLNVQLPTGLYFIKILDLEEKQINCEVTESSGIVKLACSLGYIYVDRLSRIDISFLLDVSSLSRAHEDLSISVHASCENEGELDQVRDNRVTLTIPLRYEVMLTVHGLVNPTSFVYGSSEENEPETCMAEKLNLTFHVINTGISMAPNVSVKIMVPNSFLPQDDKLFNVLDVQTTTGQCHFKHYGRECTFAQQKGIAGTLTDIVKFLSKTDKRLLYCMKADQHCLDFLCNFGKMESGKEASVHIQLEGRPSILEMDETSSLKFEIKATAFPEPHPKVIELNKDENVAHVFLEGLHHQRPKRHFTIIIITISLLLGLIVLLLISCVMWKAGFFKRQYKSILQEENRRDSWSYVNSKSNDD", "T3 sequence (P26011 20-806)": "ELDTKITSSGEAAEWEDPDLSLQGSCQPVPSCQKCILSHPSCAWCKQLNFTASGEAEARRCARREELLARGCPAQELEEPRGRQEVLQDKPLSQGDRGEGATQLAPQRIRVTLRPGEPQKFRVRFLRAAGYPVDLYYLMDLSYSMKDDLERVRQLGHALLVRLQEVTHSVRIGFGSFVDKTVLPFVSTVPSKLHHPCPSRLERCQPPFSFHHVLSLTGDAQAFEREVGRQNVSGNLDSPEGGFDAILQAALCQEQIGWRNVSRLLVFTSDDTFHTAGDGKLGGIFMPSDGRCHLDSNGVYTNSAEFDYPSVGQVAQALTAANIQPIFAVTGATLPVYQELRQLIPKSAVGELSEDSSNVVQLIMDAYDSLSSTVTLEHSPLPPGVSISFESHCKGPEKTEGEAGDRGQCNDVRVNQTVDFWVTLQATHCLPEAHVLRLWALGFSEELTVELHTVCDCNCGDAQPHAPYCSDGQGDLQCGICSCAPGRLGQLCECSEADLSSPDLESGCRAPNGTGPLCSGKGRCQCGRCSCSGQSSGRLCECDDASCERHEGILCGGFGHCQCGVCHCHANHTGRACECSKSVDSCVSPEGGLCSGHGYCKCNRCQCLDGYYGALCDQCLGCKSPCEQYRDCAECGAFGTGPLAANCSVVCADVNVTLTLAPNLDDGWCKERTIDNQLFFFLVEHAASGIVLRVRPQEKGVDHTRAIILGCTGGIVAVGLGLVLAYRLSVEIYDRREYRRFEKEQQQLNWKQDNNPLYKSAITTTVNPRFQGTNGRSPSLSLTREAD", "test": "α4β7 receptor occupancy in whole blood and Peyer's patches after oral dosing", "assay_type": "in vivo, C57BL/6 mice", "quoted_text": "One hour following dosing, mice were euthanized and whole blood/plasma and Peyer's patches were collected. Peyer's patches were dispersed in 1 mL RPMI medium with 2% FBS without washing step. Whole blood and single cell suspension of Peyer's patches (100 uL out of 1 mL total) were submitted for flow cytometry to determine α4β7 receptor occupancy. % RO=(1−(% positive test sample/% positive median vehicle control))*100. Plasma and Peyer's patches dispersed in single cell suspension (500 uL of 1 mL total) were also analyzed for drug exposure."}, "[3]": {"target": "α4β7 integrin (mouse, on cells of whole blood and Peyer's patches) (mouse) (UniProt Q00651)", "sequence (Q00651 41-1039, chain 1 of 2)": "as the sequence (Q00651 41-1039) above", "sequence (P26011 20-806, chain 2 of 2, further chain)": "as the sequence (P26011 20-806) above", "test": "flow cytometry α4β7 receptor occupancy in Peyer's patches, mice dosed orally 3 or 30 mg/kg"}}, "note": "Numbered stars: 1 amine (or outer) side, 2 acyl side, 3 side chain; on linkers, the order of the positions; unused ones are H or OH. Bridge positions count the residues as written; N and C are the ends. Square brackets hold non-standard residues; d marks the D form. Peptide text beside a SMILES is read from it. I, II: the chains in the order shown. ξ: configuration not given here. Phe(4-tBu) = CC(C)(C)c1ccc(C[C@H](N)C(=O)O)cc1; Diglycolyl = O=C(COCC(=O)[*:2])[*:1]; NMeR = CN[C@@H](CCCNC(=N)N)C(=O)O; β3hE = N[C@@H](CCC(=O)O)CC(=O)O; Thr(3ξ) = CC(O)[C@H](N)C(=O)O; Pen = CC(C)(S)[C@H](N)C(=O)O", "data": [{"molecule": "vedolizumab: intravenously administered humanized IgG monoclonal antibody directed against α4β7 [reference compound]", "values": [{"measurement": "inhibition of MAdCAM1-mediated proliferation of CD4+ T-cells", "setting": "α4β7 integrin", "value": "level of inhibition was similar to inhibition by vedolizumab"}]}, {"molecule": "CC(=O)N[C@@H]1C(=O)N(C)[C@@H](CCCNC(=N)N)C(=O)N[C@@H](CO)C(=O)N[C@@H](CC(=O)O)C(=O)N[C@@H](C(C)O)C(=O)N[C@@H](CC(C)C)C(=O)N[C@H](C(=O)N[C@@H](Cc2ccc(C(C)(C)C)cc2)C(=O)N[C@@H](CCC(=O)O)CC(=O)N[C@H](CCCCNC(=O)COCC(=O)NCCCC[C@@H](NC(=O)C[C@H](CCC(=O)O)NC(=O)[C@H](Cc2ccc(C(C)(C)C)cc2)NC(=O)[C@H]2NC(=O)[C@H](CC(C)C)NC(=O)[C@H](C(C)O)NC(=O)[C@H](CC(=O)O)NC(=O)[C@H](CO)NC(=O)[C@H](CCCNC(=N)N)N(C)C(=O)[C@@H](NC(C)=O)C(C)(C)SSC2(C)C)C(N)=O)C(N)=O)C(C)(C)SSC1(C)C", "note": "(stereo partly drawn) [Compound B, (Ac-Pen-(N-Me-Arg)-Ser-Asp-Thr-Leu-Pen-(Phe(4-tBu))-(β-homo-Glu)-(D-Lys)-NH2)2 (SEQ ID NO. 6) with linker=DIG (diglycolic acid)] (I: Ac-[Pen][NMeR]SD[Thr(3ξ)]L[Pen][Phe(4-tBu)][β3hE][dK]-NH2 / II: Ac-[Pen][NMeR]SD[Thr(3ξ)]L[Pen][Phe(4-tBu)][β3hE][dK]-NH2; disulfide I:1-I:7, II:1-II:7; linker I:10-II:10 via Diglycolyl)", "values": [{"measurement": "internalization of α4β7", "setting": "α4β7 [1]", "value": "caused internalization of α4β7"}, {"measurement": "receptor occupancy in Peyer's patches", "setting": "α4β7 [2]; 3 and 30 mg/kg PO, 1 h post dose, some animals", "value": 100, "unit": "%"}, {"measurement": "receptor occupancy in whole blood and Peyer's patches, 30 mg/kg vs 3 mg/kg dose group", "setting": "α4β7 [2]; PO", "value": "comparable"}, {"measurement": "receptor occupancy in Peyer's patches compared to whole blood", "setting": "α4β7 [2]; both dose groups (3 and 30 mg/kg PO)", "value": "significantly higher"}]}, {"molecule": "B1", "values": [{"measurement": "receptor occupancy (%)", "setting": "[3]", "value": 100, "unit": "%"}]}]}
